In patent EP1019392B1, “TRICYCLIC AMIDES USEFUL FOR INHIBITION OF G-PROTEIN FUNCTION AND FOR TREATMENT OF PROLIFERATIVE DISEASES” (SCHERING CORPORATION, priority 1995, dated 1997):
Where “and” joins values, the source holds several entries; their conditions need not be identical. Equal entries are not always repeated. Where two headings read alike, the source gives them in different places.

Biological target: T1, farnesyl protein transferase (FPT) (Rattus norvegicus, UniProt Q02293+Q04631)
T1 construct: were partially purified from rat brain by ammonium sulfate fractionation followed by Q-Sepharose; from tissue; host or cells: rat brain
Experiment: In vitro enzyme assay: inhibition of farnesyl protein transferase (transfer of [3H]farnesyl to Ras-CVLS)
Assay type: biochemical

[1] = Table 1, partially purified rat brain FPT, Ras-CVLS, read-out: FPT IC50
[2] = Table 2, comparison with GGPT, read-out: ENZYME INHIBITION FPT IC50
[3] = FPT IC50, Table 1, partially purified rat brain FPT, Ras-CVLS

Row | Compound | IC50 [1] | IC50 [2] | IC50 [3]
1 | O=C(Cc1cc[n+]([O-])cc1)N1CCN([C@H]2c3ncc(Br)cc3CCc3cc(Cl)cc(Br)c32)CC1 [Example 11A] | 1.8 nM and 2.1 nM | 1.8 nM and 2.1 nM | –
2 | O=C(Cc1cc[n+]([O-])cc1)N1CCC([C@H]2c3ncc(Br)cc3CCc3cc(Cl)cc(Br)c32)CC1 [Example 9] | 1.3 nM | 1.3 nM | –
3 | NC(=O)N1CCC(CC(=O)N2CCC(C3c4ccc(Cl)c(Br)c4CCc4cc(Br)cnc43)CC2)CC1 (single isomer, unassigned) [Example 13] | 5 nM | 5 nM | –
4 | O=C(Cc1cc[n+]([O-])cc1)N1CCC(=C2c3ccc(Cl)c(Br)c3CCc3cc(Br)cnc32)CC1 [Example 2] | 10 nM and 16 nM | 10 nM and 16 nM | –
5 | O=C(Cc1cc[n+]([O-])cc1)N1CCC(=C2c3ncc(Br)cc3CCc3cc(Cl)cc(Br)c32)CC1 (racemic) [Example 7] | 12 nM | 12 nM | –
6 | O=C(Cc1cc[n+]([O-])cc1)N1CCC(C2c3ccc(Cl)c(Br)c3CCc3cc(Br)cnc32)CC1 (single isomer, unassigned) [Example 14A] | 2.6 nM | 2.6 nM | –
7 | O=C(Cc1cc[n+]([O-])cc1)N1CCN([C@H]2c3ccc(Cl)c(Br)c3CCc3cc(Br)cnc32)CC1 [Example 5] | 2.3 nM | 2.3 nM | –
8 | O=C(Cc1cc[n+]([O-])cc1)N1CCN([C@H]2c3ccc(Cl)cc3CCc3cc(Br)cnc32)CC1 [Example 16B] | – | – | 38 nM and 23 nM
9 | NC(=O)N1CCC(CC(=O)N2CCC(C3c4ncc(Br)cc4CCc4cc(Cl)cc(Cl)c43)CC2)CC1 (single isomer, unassigned) [Example 18] | 3.1 nM | 3.1 nM | –
10 | O=C(Cc1cc[n+]([O-])cc1)N1CCN([C@@H]2c3ccc(Cl)cc3CCc3cc(Br)cnc32)CC1 [Example 16A] | – | – | 32 nM and 26 nM
